Experimental data published in patent publication US20030083334A1, “Synergistic insecticidal formulations of pyridaben and strobilurins” (priority 2000, published 2003).

Experiments:
cotton aphid = test: Greenhouse trial, number of apterous aphids (AA) per cotton plant; format: in vivo, Aphis gossypil; details: for # of AA 6 DAT / # of AA 16 DAT: apterous aphids per plant; for # of AA 6 DAT: untreated 290; for # of AA 16 DAT: untreated 750
Procedure: (§1) A greenhouse trial was conducted to determine the insecticidal effects against the cotton aphid (Aphis gossypil). In this regard, cotton plants infected with the cotton aphid were sprayed in a growth chamber and placed in a greenhouse. Counts were made on apterous forms at 6 and 16 days after treatment (DAT), with the data appearing in Tables 1A and 1 B below.
Example 1 was repeated and the number of apterous aphids (AA) per plant at 6 and 16 DAT were noted. The data appear in Table 4 below versus a conventional insecticide, imidacloprid (Provado® insecticide commercially available from Bayer Corp.).

[1] = tested on: twospotted spider mites (Tetranychus urticae); test: Greenhouse trial, dracaena infected with twospotted spider mites; % control; format: in vivo
Procedure: as §1
Example 1 was repeated except using dracaena infected with twospotted spider mites (Tetranychus urticae) and using the application rates noted.

[2] = tested on: green peach aphids (Myzus persicae); test: Greenhouse trial, celosia infected with green peach aphids; % control; format: in vivo
Procedure: as §1
Example 1 was repeated except using celosia infected with green peach aphids (Myzus persicae) and using the application rates noted.

[3] = tested on: cotton aphid (Aphis gossypil); test: Greenhouse trial, cotton plants infected with cotton aphid, sprayed; % control; format: in vivo
Procedure: as §1

| Structure (SMILES) | # of AA 6 DAT (cotton aphid; 5 ppm ai) | # of AA 16 DAT (cotton aphid; 5 ppm ai) | # of AA 6 DAT (cotton aphid; 10 ppm ai) | # of AA 16 DAT (cotton aphid; 10 ppm ai) | # of AA 6 DAT (cotton aphid; 50 ppm ai) | # of AA 16 DAT (cotton aphid; 50 ppm ai) | # of AA 6 DAT (cotton aphid; 100 ppm ai) | # of AA 16 DAT (cotton aphid; 100 ppm ai) | % Cotton Aphid Control 6 DAT ([3]; 5 ppm) [%] | % Cotton Aphid Control 16 DAT ([3]; 5 ppm) [%] | % Cotton Aphid Control 6 DAT ([3]; 10 ppm) [%] | % Cotton Aphid Control 16 DAT ([3]; 10 ppm) [%] | % Cotton Aphid Control 6 DAT ([3]; 50 ppm) [%] | % Cotton Aphid Control 16 DAT ([3]; 50 ppm) [%] | % Cotton Aphid Control 6 DAT ([3]; 100 ppm) [%] | % Cotton Aphid Control 16 DAT ([3]; 100 ppm) [%] | also measured |
| --- | --- | --- | --- | --- | --- | --- | --- | --- | --- | --- | --- | --- | --- | --- | --- | --- | --- |
| CC(C)(C)c1ccc(CSc2cnn(C(C)(C)C)c(=O)c2Cl)cc1 [BAS 300, 2-tert-butyl-5-(4-tert-butylbenzylthio)-4-chloropyridazin-3(2H)-one] | 76 | 233 | 72 | 222 | 16 | 15 | 7 | 7 | 73.8 | 68.9 | 75.2 | 70.4 | 94.5 | 98 | 97.6 | 99.1 | activity against the cotton aphid (cotton aphid; 6 DAT, application rate of 5 ppm ai): moderate activity; # of AA 6 DAT (cotton aphid; 200 ppm ai): 1; # of AA 16 DAT (cotton aphid; 200 ppm ai): 4; # of AA 6 DAT (cotton aphid; 300 ppm ai): 2; # of AA 16 DAT (cotton aphid; 300 ppm ai): 2; intrinsic activity against the cotton aphid (cotton aphid; in vivo): excellent intrinsic activity; % Twospotted Spider Mite Control ([1]; 2 oz formulated product/100 gal, 7 DAT): 80%; % Twospotted Spider Mite Control ([1]; 2 oz formulated product/100 gal, 14 DAT): 91%; % Green Peach Aphid Control ([2]; 0.9 lb ai/100 gal, 2 DAT): 0%; % Green Peach Aphid Control ([2]; 0.9 lb ai/100 gal, 4 DAT): 47%; % Green Peach Aphid Control ([2]; 0.9 lb ai/100 gal, 6 DAT): 77%; % Green Peach Aphid Control ([2]; 0.9 lb ai/100 gal, 10 DAT): 97%; % Green Peach Aphid Control ([2]; 0.9 lb ai/100 gal, 14 DAT): 95% |
| CO/N=C(/C(=O)OC)c1ccccc1COc1ccccc1C [BAS 490, methyl-(E)-2-methoxyimino-2-[2-o-tolyoxy-methyl)phenyl] acetate] | 258 | 650 | 290 | 643 | 298 | 717 | 316 | 550 | 11 | 13.3 | 0 | 14.3 | 0 | 4.4 | 0 | 26.6 | effectiveness alone against the cotton aphid (cotton aphid; alone, at all rates): ineffective alone; % Twospotted Spider Mite Control ([1]; 3.2 oz formulated product/100 gal, 7 DAT): 16%; % Twospotted Spider Mite Control ([1]; 3.2 oz formulated product/100 gal, 14 DAT): 28%; % Green Peach Aphid Control ([2]; 0.1 lb ai/100 gal, 2 DAT): 0%; % Green Peach Aphid Control ([2]; 0.1 lb ai/100 gal, 4 DAT): 14%; % Green Peach Aphid Control ([2]; 0.1 lb ai/100 gal, 6 DAT): 5%; % Green Peach Aphid Control ([2]; 0.1 lb ai/100 gal, 10 DAT): 10%; % Green Peach Aphid Control ([2]; 0.1 lb ai/100 gal, 14 DAT): 5% |
